The test system of experiment [1] is Rattus norvegicus. Kind of experiment: Anti-inflammatory activity in Wistar rat assessed as inhibition of carrageenan-induced paw edema at 10 mg/kg, ip pretreated for 1 hr followed by carrageenan challenge and measured after 4 hr relative to indomethacin. Format: functional. The note with it: time 5 hrs.
The test system of experiment [2] is Rattus norvegicus. Kind of experiment: Anti-inflammatory activity in Wistar rat assessed as inhibition of carrageenan-induced paw edema at 10 mg/kg, ip pretreated for 1 hr followed by carrageenan challenge and measured after 2 hr relative to control (reference value: 0.00 +/-0.03 %). It is filed as functional. The note with it: time 3 hrs.
Experiment [3] concerns Rattus norvegicus. Kind of experiment: Antiinflammatory activity in Wistar rat model of carrageenan-induced paw edema assessed as reduction in thickness of paw edema at 10 mg/kg, ip pretreated for 1 hr followed by carrageenan challenge and measured after 24 hrs (reference value: 0.83 +/-0.08 mm). It is filed as functional. The note with it: time 25 hrs. Background: The carrageenan paw model is a standard test of acute inflammation.

In experiment [4] the test system is Rattus norvegicus. Kind of experiment: Anti-inflammatory activity in Wistar rat assessed as inhibition of carrageenan-induced paw edema at 10 mg/kg, ip pretreated for 1 hr followed by carrageenan challenge and measured after 1 hr relative to control (reference value: 0.00 +/-0.02 %). The note with it: time 2 hrs. It is filed as functional.
The test system of experiment [5] is Rattus norvegicus. Kind of experiment: Anti-inflammatory activity in Wistar rat assessed as inhibition of carrageenan-induced paw edema at 10 mg/kg, ip pretreated for 1 hr followed by carrageenan challenge and measured after 4 hr relative to control (reference value: 0.00 +/-0.4 %). The note with it: time 5 hrs. Format: functional.
Experiment [6] relates to Rattus norvegicus. Kind of experiment: Antiinflammatory activity in Wistar rat model of carrageenan-induced paw edema assessed as reduction in thickness of paw edema at 10 mg/kg, ip pretreated for 1 hr followed by carrageenan challenge and measured after 2 hrs (reference value: 2.06 +/-0.09 mm). It is filed as functional. The note with it: time 3 hrs.
The subject of experiment [7] is Salmonella typhimurium. The experiment can be described thus: Antibacterial activity against Salmonella typhimurium ATCC 19430 incubated for 18 hrs by agar dilution assay. The note with it: Salmonella enterica. It is filed as functional, Salmonella enterica subsp. enterica serovar Typhimurium. A general note: In agar dilution the substance is mixed into plates at graded concentrations.

The test system of experiment [8] is Splenocyte. The experiment can be described thus: Immunomodulatory activity in Swiss albino mouse splenocytes assessed as cell viability at 10 uM by measuring stimulation index incubated for 72 hrs in presence of mitogenic stimulus phytohaemagglutinin by MTT assay (reference value: 1.00 +/- 0.24). Format: functional.
Experiment [9] concerns Rattus norvegicus. Kind of experiment: Antiinflammatory activity in Wistar rat model of carrageenan-induced paw edema assessed as reduction in thickness of paw edema at 10 mg/kg, ip pretreated for 1 hr followed by carrageenan challenge and measured after 1 hr (reference value: 2.41 +/-0.05 mm). It is filed as functional. The note with it: time 1 hr after carrageenan.
Experiment [10] deals with Peritoneal macrophage. Kind of experiment: Antiinflammatory activity in […] mouse Peritoneal macrophages assessed as reduction in LPS-induced NO production by measuring reduction in stimulation index at 10 uM preincubated for 1 hr followed by LPS stimulation measured after 24 hrs by Griess method (reference value: 27.31 +/- 2.56 uM). It is filed as functional. The note with it: time 25 hrs. Background: The Griess reaction detects nitrite, a stable product of nitric oxide.

In experiment [11] the test system is Rattus norvegicus. Kind of experiment: Anti-inflammatory activity in Wistar rat assessed as inhibition of carrageenan-induced paw edema at 10 mg/kg, ip pretreated for 1 hr followed by carrageenan challenge and measured after 24 hr relative to control (reference value: 0.00 +/-0.3 %). The note with it: time 25 hrs. It is filed as functional.
Experiment [12] relates to Staphylococcus aureus. Kind of experiment: Antibacterial activity against Staphylococcus aureus ATCC 25923 incubated for 18 hrs by agar dilution method. It is filed as functional.
Experiment [13] has as its system Pseudomonas aeruginosa. Kind of experiment: Antibacterial activity against Pseudomonas aeruginosa ATCC 27853 incubated for 18 hrs by agar dilution assay. Format: functional.
Experiment [14] concerns Candida albicans. Kind of experiment: Antifungal activity against Candida albicans incubated for 18 to 24 hrs by CLSI method. The note with it: time 18-24 hrs. It is filed as functional.
The subject of experiment [15] is Streptococcus pyogenes. The experiment can be described thus: Antibacterial activity against Streptococcus pyogenes ATCC 19615 incubated for 18 hrs by agar dilution method. It is filed as functional.
The subject of experiment [16] is Splenocyte. Kind of experiment: Immunomodulatory activity in Swiss albino mouse splenocytes assessed as cell viability at 10 uM by measuring inhibition of stimulation index incubated for 72 hrs in presence of mitogenic stimulus phytohaemagglutinin by MTT assay relative to indomethacin. It is filed as functional. The note with it: read-out: Activity.
For experiment [17], the system named is Rattus norvegicus. The experiment can be described thus: Antiinflammatory activity in Wistar rat model of carrageenan-induced paw edema assessed as reduction in thickness of paw edema at 10 mg/kg, ip pretreated for 1 hr followed by carrageenan challenge and measured after 4 hrs (reference value: 1.40 +/-0.10 mm). The note with it: time 5 hrs. It is filed as functional.

For experiment [18], the system named is Rattus norvegicus. Kind of experiment: Anti-inflammatory activity in Wistar rat assessed as inhibition of carrageenan-induced paw edema at 10 mg/kg, ip pretreated for 1 hr followed by carrageenan challenge and measured after 3 hr relative to control (reference value: 0.00 +/-0.1 %). The note with it: time 4 hrs. It is filed as functional.
The subject of experiment [19] is Rattus norvegicus. The experiment can be described thus: Antiinflammatory activity in Wistar rat model of carrageenan-induced paw edema assessed as reduction in thickness of paw edema at 10 mg/kg, ip pretreated for 1 hr followed by carrageenan challenge and measured after 3 hrs (reference value: 1.79 +/-0.07 mm). Format: functional. The note with it: time 4 hrs.

For experiment [20], the system named is Peritoneal macrophage. The experiment can be described thus: Antiinflammatory activity in […] mouse Peritoneal macrophages assessed as inhibition of LPS-induced NO production at 10 uM preincubated for 1 hr followed by LPS stimulation measured after 24 hrs by Griess method relative to control (reference value: 0.0 %). Format: functional. Set-up: scale not given: the % may be the effect or the level left. The note with it: time 25 hrs.

Several values for one entry are separate records, joined by “and”; a condition that tells them apart may be missing. Equal values may be shown once.

For orientation: inhibition in vivo means how much of the control response was suppressed. Usually MIC stands for the lowest concentration that inhibits growth of the organism. `COc1cc(/C=C/C(=O)/C=C(O)/C=C/c2ccc(OC(=O)[C@H](Cc3ccccc3)NC(=O)OCc3ccccc3)c(OC)c2)ccc1OC(=O)[C@H](Cc1ccccc1)NC(=O)OCc1ccccc1`: the inhibition in vivo at 10 mg/kg turned out to be 6% in experiment [1]; 24% in experiment [2]; 59% in experiment [4]; 5% in experiment [5]; 1% in experiment [11]; 9% in experiment [18]. Besides, the Activity in experiment [3] amounted to 0.82 mm; in experiment [6], 1.56 mm; in experiment [9] it was 1 mm; in experiment [10], 26.33 µM; in experiment [17] it was 1.38 mm; in [19], 1.63 mm. Besides, in experiment [20], the Activity worked out at 3.6%. The MIC was 0.125 µg/mL and 0.134 µM in experiment [7]; 0.125 µg/mL and 0.134 µM in experiment [12]; 0.25 µg/mL and 0.269 µM in experiment [13]; 2 µg/mL and 2.15 µM in [14]; 0.125 µg/mL and 0.134 µM in experiment [15]. The Activity_index in [8] is reported as 2.91. In experiment [16], the viability at 10 µM was 41.5%.
On to `COc1cc(/C=C/C(=O)/C=C(O)/C=C/c2ccc(OC(=O)[C@H](CCC(N)=O)NC(=O)OC(C)(C)C)c(OC)c2)ccc1OC(=O)[C@H](CCC(N)=O)NC(=O)OC(C)(C)C`, for which the inhibition in vivo at 10 mg/kg is 47% in experiment [1]; 16% in [2]; 10% in [4]; 41% in [5]; 57% in experiment [11]; 32% in experiment [18]. Also, the Activity in experiment [3] came to 0.36 mm; in experiment [6] it was 1.73 mm; in experiment [9], 2.16 mm; in experiment [10], 21.22 µM; in experiment [17], 0.83 mm; in [19], 1.22 mm. Further, the Activity in experiment [20] is recorded as 22.29%. For the same compound, the MIC is 0.125 µg/mL and 0.152 µM in experiment [7]; 0.125 µg/mL and 0.152 µM in experiment [12]; 1 µg/mL and 1.21 µM in [13]; 2 µg/mL and 2.42 µM in experiment [14]; 0.25 µg/mL and 0.303 µM in [15]. For the same compound, in experiment [8], the Activity_index is given as 2.14. The viability at 10 µM in experiment [16] was 56.6%.
Take `COc1cc(/C=C/C(=O)/C=C(O)/C=C/c2ccc(OC(=O)[C@H](Cc3ccccc3)NC(=O)OCC3c4ccccc4-c4ccccc43)c(OC)c2)ccc1OC(=O)[C@H](Cc1ccccc1)NC(=O)OCC1c2ccccc2-c2ccccc21`: the inhibition in vivo at 10 mg/kg in [1] was determined as 69%; in experiment [2], 41%; in [4], 10%; in experiment [5] it was 60%; in [11], 5%; in experiment [18], 54%. Besides, the Activity is 0.79 mm in [3]; 1.22 mm in [6]; 2.17 mm in experiment [9]; 18.84 µM in [10]; 0.56 mm in [17]; 0.82 mm in [19]. Further, in experiment [20], the Activity came to 31.01%. Further, the MIC was 0.25 µg/mL and 0.226 µM in experiment [7]; 0.25 µg/mL and 0.226 µM in experiment [12]; 2 µg/mL and 1.81 µM in experiment [13]; 0.5 µg/mL and 0.452 µM in experiment [14]; 0.125 µg/mL and 0.113 µM in [15]. Moreover, the Activity_index in experiment [8] is recorded as 1.78. The viability at 10 µM in experiment [16] is 68.1%.
As to `COc1cc(/C=C/C(=O)/C=C(O)/C=C/c2ccc(OC(=O)C(C)NC(=O)OC(C)(C)C)c(OC)c2)ccc1OC(=O)C(C)NC(=O)OC(C)(C)C` (stereo not given), the inhibition in vivo at 10 mg/kg in experiment [1] amounted to 46%; in experiment [2], 16%; in experiment [4] it was 11%; in experiment [5], 40%; in experiment [11], 29%; in [18], 25%. The Activity in [3] stood at 0.59 mm; in [6] it was 1.74 mm; in experiment [9] it was 2.15 mm; in [10] it was 18.88 µM; in experiment [17] it was 0.84 mm; in [19], 1.34 mm. In addition, the Activity in experiment [20] worked out at 30.88%. Moreover, the MIC in experiment [7] is 0.25 µg/mL and 0.352 µM; in experiment [12] it was 0.25 µg/mL and 0.352 µM; in experiment [13], 0.25 µg/mL and 0.352 µM; in experiment [14], 0.5 µg/mL and 0.703 µM; in [15], 0.125 µg/mL and 0.176 µM. Moreover, the Activity_index in [8] was 1.78. Also, in experiment [16], the viability at 10 µM worked out at 67.9%.
Regarding `COc1cc(/C=C/C(=O)/C=C(O)/C=C/c2ccc(OC(=O)CNC(=O)OC(C)(C)C)c(OC)c2)ccc1OC(=O)CNC(=O)OC(C)(C)C`, the inhibition in vivo at 10 mg/kg in [1] was determined as 55%; in [2], 44%; in experiment [4], 43%; in [5] it was 48%; in experiment [11], 47%; in [18], 44%. Besides, the Activity in [3] was 0.44 mm; in experiment [6], 1.16 mm; in [9], 1.37 mm; in experiment [10], 18.12 µM; in experiment [17], 0.73 mm; in experiment [19], 1 mm. Also, the Activity in experiment [20] amounted to 33.65%. The MIC was 0.125 µg/mL and 0.183 µM in experiment [7]; 0.25 µg/mL and 0.366 µM in [12]; 0.25 µg/mL and 0.366 µM in experiment [13]; 0.5 µg/mL and 0.732 µM in experiment [14]; 1 µg/mL and 1.47 µM in experiment [15]. In addition, in experiment [8], the Activity_index is 2.11. The viability at 10 µM in [16] is 57.4%.
Regarding `COc1cc(/C=C/C(=O)/C=C(O)/C=C/c2ccc(OC(=O)[C@@H](NC(=O)OCc3ccccc3)C(C)C)c(OC)c2)ccc1OC(=O)[C@@H](NC(=O)OCc1ccccc1)C(C)C`, the inhibition in vivo at 10 mg/kg in [1] was 14%; in [2], 20%; in experiment [4], 51%; in experiment [5], 12%; in experiment [11], 2%; in [18] it was 19%. Moreover, the Activity in experiment [3] stood at 0.81 mm; in experiment [6] it was 1.65 mm; in [9], 1.17 mm; in experiment [10], 25.76 µM; in [17], 1.23 mm; in experiment [19], 1.45 mm. The Activity in experiment [20] is recorded as 5.68%. Further, the MIC is 0.125 µg/mL and 0.15 µM in experiment [7]; 0.125 µg/mL and 0.15 µM in experiment [12]; 0.25 µg/mL and 0.299 µM in [13]; 1 µg/mL and 1.2 µM in [14]; 0.5 µg/mL and 0.599 µM in experiment [15]. In [8], the Activity_index was found to be 2.87. Also, in experiment [16], the viability at 10 µM was found to be 42.1%.

(Values after ChEMBL document CHEMBL4765295, “Synthesis, pharmacological profile and 2D-QSAR studies of curcumin-amino acid conjugates as potential drug candidates” (Eur J Med Chem, 2020).)
